ChEMBL document CHEMBL3885861, “Open TG-GATES”

Species: Rattus norvegicus
Assay: Open TG-GATES - Regimen: Single
Format: toxicity, organism-based, Sprague-Dawley
Set-up: regimen Single, gender Male, age 6 weeks
Conditions: in vivo, po, 1 mg/kg, route gavage, dose level Low; for APTT / Bas / Eos / Fbg / Hb / Ht / Lym / MCH / MCHC / MCV / Mono / Neu / PT / Plat / RBC / Ret / WBC: tissue Blood; for KIDNEY_L / KIDNEY_R / KIDNEY_TOTAL: tissue Kidney; for LIVER: tissue Liver; for A/G / ALP / ALT / AST / BUN / CRE / Ca / Cl / DBIL / GLC / IP / K / LDH / Na / PL / RALB / TBIL / TC / TG / TP / gamma-GTP: tissue Plasma

CN1C(C(=O)Nc2ccccn2)=C(O)c2sc(Cl)cc2S1(=O)=O [LORNOXICAM] showed a TERMINAL_BW (3 h) of 222.5 g, an APTT (3 h) of 19.4 s and a Bas (3 h) of 0.6%. It also gave an Eos (3 h) of 1%, a Fbg (3 h) of 219 mg/dL and a Hb (3 h) of 13.5 g/dL. It also gave a Ht (3 h) of 39.8%, a Lym (3 h) of 78.2% and an MCH (3 h) of 21.5 pg. For the same molecule, the MCHC (3 h) was 33.9%, the MCV (3 h) was 63.4 fL and the Mono (3 h) was 2.6%. The Neu (3 h) was 17.4%, the PT (3 h) was 11.6 s and the Plat (3 h) was 128.4 x10_4/uL. For the same molecule, the RBC (3 h) was 627.6 x10_4/ul, the Ret (3 h) was 7% and the WBC (3 h) was 99.9 x10_2/uL. For the same molecule, the KIDNEY_L (3 h) was 1 g, the KIDNEY_R (3 h) was 1 g and the KIDNEY_TOTAL (3 h) was 2 g. It also gave an LIVER (3 h) of 10 g, an A/G (3 h) of 1.7 and an ALP (3 h) of 878.4 IU/L. The ALT (3 h) was 40.6 IU/L, the AST (3 h) was 71.8 IU/L and the BUN (3 h) was 11 mg/dL. The CRE (3 h) was 0.3 mg/dL, the Ca (3 h) was 10.7 mg/dL and the Cl (3 h) was 102.6 meq/L. The DBIL (3 h) was 0.072 mg/dL, the GLC (3 h) was 194.2 mg/dL and the IP (3 h) was 9.2 mg/dL. For the same molecule, the K (3 h) was 3.7 meq/L, the LDH (3 h) was 172 IU/L and the Na (3 h) was 140.4 meq/L. The PL (3 h) was 149.8 mg/dL, the RALB (3 h) was 3.5 g/dL and the TBIL (3 h) was 0.1 mg/dL. The TC (3 h) was 81.8 mg/dL, the TG (3 h) was 64.2 mg/dL and the TP (3 h) was 5.6 g/dL. It also gave a gamma-GTP (3 h) of 1.2 IU/L, a TERMINAL_BW (6 h) of 223 g and an APTT (6 h) of 19.9 s. For the same molecule, the Bas (6 h) was 0.8%, the Eos (6 h) was 1% and the Fbg (6 h) was 211 mg/dL. The Hb (6 h) was 13.1 g/dL, the Ht (6 h) was 38.9% and the Lym (6 h) was 74.8%. It also gave an MCH (6 h) of 20.8 pg, an MCHC (6 h) of 33.8% and an MCV (6 h) of 61.7 fL. For the same molecule, the Mono (6 h) was 3.2%, the Neu (6 h) was 19.8% and the PT (6 h) was 12.2 s. The Plat (6 h) was 126.1 x10_4/uL, the RBC (6 h) was 629.8 x10_4/ul and the Ret (6 h) was 6.7%. It also gave a WBC (6 h) of 117.6 x10_2/uL, a KIDNEY_L (6 h) of 1 g and a KIDNEY_R (6 h) of 1 g. It also gave a KIDNEY_TOTAL (6 h) of 2 g, an LIVER (6 h) of 9.3 g and an A/G (6 h) of 1.7. It also gave an ALP (6 h) of 908.8 IU/L, an ALT (6 h) of 44.4 IU/L and an AST (6 h) of 79.6 IU/L. It also gave a BUN (6 h) of 11.2 mg/dL, a CRE (6 h) of 0.3 mg/dL and a Ca (6 h) of 10.6 mg/dL. For the same molecule, the Cl (6 h) was 104 meq/L, the DBIL (6 h) was 0.074 mg/dL and the GLC (6 h) was 190.2 mg/dL. It also gave an IP (6 h) of 8.6 mg/dL, a K (6 h) of 4 meq/L and an LDH (6 h) of 184.8 IU/L. It also gave a Na (6 h) of 140.6 meq/L, a PL (6 h) of 134.8 mg/dL and an RALB (6 h) of 3.5 g/dL. The TBIL (6 h) was 0.1 mg/dL, the TC (6 h) was 72.2 mg/dL and the TG (6 h) was 61.8 mg/dL. It also gave a TP (6 h) of 5.5 g/dL, a gamma-GTP (6 h) of 1.2 IU/L and a TERMINAL_BW (9 h) of 220.2 g. The APTT (9 h) was 19.1 s, the Bas (9 h) was 0.6% and the Eos (9 h) was 0.8%. It also gave a Fbg (9 h) of 220.4 mg/dL, a Hb (9 h) of 13.5 g/dL and a Ht (9 h) of 40.3%. The Lym (9 h) was 75%, the MCH (9 h) was 21.2 pg and the MCHC (9 h) was 33.5%. It also gave an MCV (9 h) of 63.3 fL, a Mono (9 h) of 3.4% and a Neu (9 h) of 20.4%. For the same molecule, the PT (9 h) was 12.2 s, the Plat (9 h) was 119.8 x10_4/uL and the RBC (9 h) was 636.4 x10_4/ul. For the same molecule, the Ret (9 h) was 7.4%, the WBC (9 h) was 109.6 x10_2/uL and the KIDNEY_L (9 h) was 1 g. For the same molecule, the KIDNEY_R (9 h) was 1 g, the KIDNEY_TOTAL (9 h) was 2 g and the LIVER (9 h) was 8.9 g. For the same molecule, the A/G (9 h) was 1.6, the ALP (9 h) was 866.2 IU/L and the ALT (9 h) was 37.8 IU/L. The AST (9 h) was 68.6 IU/L, the BUN (9 h) was 10.6 mg/dL and the CRE (9 h) was 0.3 mg/dL. It also gave a Ca (9 h) of 10.5 mg/dL, a Cl (9 h) of 103 meq/L and a DBIL (9 h) of 0.072 mg/dL. It also gave a GLC (9 h) of 197.8 mg/dL, an IP (9 h) of 9.1 mg/dL and a K (9 h) of 4.1 meq/L. The LDH (9 h) was 158.6 IU/L, the Na (9 h) was 141 meq/L and the PL (9 h) was 132.8 mg/dL. For the same molecule, the RALB (9 h) was 3.4 g/dL, the TBIL (9 h) was 0.1 mg/dL and the TC (9 h) was 73.2 mg/dL. The TG (9 h) was 57.8 mg/dL, the TP (9 h) was 5.5 g/dL and the gamma-GTP (9 h) was 1.2 IU/L. It also gave a TERMINAL_BW (24 h) of 238.6 g, an APTT (24 h) of 19.3 s and a Bas (24 h) of 0.4%. For the same molecule, the Eos (24 h) was 0.8%, the Fbg (24 h) was 251 mg/dL and the Hb (24 h) was 13 g/dL. The Ht (24 h) was 38.9%, the Lym (24 h) was 69.4% and the MCH (24 h) was 21.3 pg. The MCHC (24 h) was 33.4%, the MCV (24 h) was 63.6 fL and the Mono (24 h) was 3.2%. The Neu (24 h) was 26%, the PT (24 h) was 11.8 s and the Plat (24 h) was 121.2 x10_4/uL. The RBC (24 h) was 612.8 x10_4/ul, the Ret (24 h) was 6.9% and the WBC (24 h) was 134.5 x10_2/uL. For the same molecule, the KIDNEY_L (24 h) was 1 g, the KIDNEY_R (24 h) was 1 g and the KIDNEY_TOTAL (24 h) was 2 g. For the same molecule, the LIVER (24 h) was 11.4 g, the A/G (24 h) was 1.5 and the ALP (24 h) was 822 IU/L. The ALT (24 h) was 39.6 IU/L, the AST (24 h) was 68.8 IU/L and the BUN (24 h) was 14.8 mg/dL. The CRE (24 h) was 0.4 mg/dL, the Ca (24 h) was 10.8 mg/dL and the Cl (24 h) was 104 meq/L. It also gave a DBIL (24 h) of 0.098 mg/dL, a GLC (24 h) of 203.6 mg/dL and an IP (24 h) of 7.6 mg/dL. It also gave a K (24 h) of 4.1 meq/L, an LDH (24 h) of 190.4 IU/L and a Na (24 h) of 141 meq/L. It also gave a PL (24 h) of 145.2 mg/dL, an RALB (24 h) of 3.2 g/dL and a TBIL (24 h) of 0.2 mg/dL. It also gave a TC (24 h) of 73.8 mg/dL, a TG (24 h) of 100.2 mg/dL and a TP (24 h) of 5.4 g/dL. For the same molecule, the gamma-GTP (24 h) was 1.4 IU/L.
